Measurements reported in patent publication US8912180B2, “Heterocyclic compound” (Astellas Pharma Inc., priority 2010, dated 2014).
Where a name gives a salt, the structure may show the parent alone.

Key:
IL-2 production = test: Rat in vivo IL-2 production inhibition test (Concanavalin A induced); conditions: 10 mg/kg oral, 2 hours before Concanavalin A 15 mg/kg iv; blood IL-2 at 3 hours, vs vehicle control; male LEW rats
Protocol: 3. Rat In Vivo IL-2 Production Inhibition Test
For the experiment, male LEW/CrlCrlj rats (Charles River Laboratories, Japan, Inc.) (6-week old, body weight 130 to 180 g) were used. The test compound was suspended in a 0.5% methyl cellulose solution and orally administered at 5 mL/kg. IL-2 production was induced by tail vein injection of Concanavalin A (Funakoshi Corporation, Catalogue No. L-1000) at a dose of 15 mg/kg.
The test was carried out according to the protocol shown below. At 2 hours or 16 hours before administration of Concanavalin A, the test compound was orally administered to rats. At 3 hours after administration of Concanavalin A, blood was collected. The IL-2 concentration in blood was quantified using an ELISA kit (R&D Systems, Inc., Catalogue No. DY502E). An inhibition rate was calculated from the amount of IL-2 produced in a group administered with the test compound with respect to the amount of the IL-2 produced in a control group administered with a vehicle.

human PI3Kδ enzyme = target: T1, human PI3Kδ enzyme (Homo sapiens, UniProt O00329); test: PI3Kδ enzyme inhibitory activity (PI3-Kinase HTRF Assay kit); format: biochemical; conditions: human PI3Kδ 10 ng/well, ATP 30 μM, PIP2 10 μM, room temperature 30 minutes
T1 construct: purchased Millipore Corporation 14-604
Protocol: 1. PI3Kδ Enzyme Inhibitory Activity
For the experiment, a PI3-Kinase HTRF Assay kit (Millipore Corporation, Catalogue No. 33-016) and a human PI3Kδ enzyme (Millipore Corporation, Catalogue No. 14-604) were used. The measurement method was in accordance with the appended instructions. The overview thereof is as follows.
PI3Kδ (10 ng/well), phosphatidylinositol-4,5-bisphosphate (10 μM), ATP (30 μM), and the test compound were mixed in a 384-well plate (total 20 μL), and incubated at room temperature for 30 minutes. EDTA and biotinylated phosphatidylinositol-3,4,5-triphosphate were added thereto to stop the reaction. Thereafter, a Europium labeled anti-GST antibody, a GST bond GRP1 PH domain, and streptavidin-APC were added thereto, followed by incubation overnight. An HTRF ratio was measured using an HTRF plate reader.

Human PI3Kα = target: T2, Human PI3Kα (Homo sapiens, UniProt P42336); test: PI3Kα enzyme inhibitory activity (Kinase-Glo Plus luminescence); format: biochemical; conditions: human PI3Kα 12 ng/well, phosphatidylinositol 0.2 μg/well, 37° C. 3 hours
T2 construct: purchased Millipore Corporation 14-602
Protocol: 2. PI3Kα Enzyme Inhibitory Activity
Human PI3Kα (12 ng/well, Millipore Corporation, Catalogue No. 14-602), phosphatidylinositol (0.2 μg/well), and the test compound were mixed in a 384-well plate in a reaction buffer (50 mM Hepes, 10 mM NaCl, 10 mM MgCl2, 2 mM EGTA, 2 mM DTT, pH 7.3) (total 10 μl), and incubated at 37° C. for 3 hours. After the reaction, 10 μL of a Kinase-Glo Plus reagent (Promega, Catalogue No. V3772) was added thereto, and a luminescence was measured with a luminometer.

[1] = test system: Spleen cells prepared from male LEW/CrlCrlj rats (B cell proliferation); test: Rat B cell proliferation inhibition test (anti-rat IgM, [3H]thymidine); format: cell-based; conditions: anti-rat IgM 3 μg/well, 48 hours culture
Protocol: 4. Rat B Cell Proliferation Inhibition Test
Spleen cells (1.0×10^5 cells/well) prepared from male LEW/CrlCrlj rats (Charles River Laboratories, Japan, Inc.), mouse F(ab′)2 fragment anti-rat IgM (3 μg/well, SouthernBiotech Associates, Inc., Catalogue No. 3082-14) and the test compound dissolved in DMSO (final DMSO concentration 0.1%) were mixed in a 96-well plate using a 10% FCS-containing RPMI-1640 culture medium (total 200 μL). They were cultured in a CO2 incubator for 48 hours and [^3H]thymidine (925 GBq/mmol, Moravek Biochemicals, Inc., Catalogue No. MT6038) was added thereto at 0.037 MBq/well at 4 hours before completion of culture. Cells were harvested in a GF/C glass filter using a cell harvester, and a radioactivity on the filter was measured using a liquid scintillation counter.

T2 sequence (P42336 whole entry): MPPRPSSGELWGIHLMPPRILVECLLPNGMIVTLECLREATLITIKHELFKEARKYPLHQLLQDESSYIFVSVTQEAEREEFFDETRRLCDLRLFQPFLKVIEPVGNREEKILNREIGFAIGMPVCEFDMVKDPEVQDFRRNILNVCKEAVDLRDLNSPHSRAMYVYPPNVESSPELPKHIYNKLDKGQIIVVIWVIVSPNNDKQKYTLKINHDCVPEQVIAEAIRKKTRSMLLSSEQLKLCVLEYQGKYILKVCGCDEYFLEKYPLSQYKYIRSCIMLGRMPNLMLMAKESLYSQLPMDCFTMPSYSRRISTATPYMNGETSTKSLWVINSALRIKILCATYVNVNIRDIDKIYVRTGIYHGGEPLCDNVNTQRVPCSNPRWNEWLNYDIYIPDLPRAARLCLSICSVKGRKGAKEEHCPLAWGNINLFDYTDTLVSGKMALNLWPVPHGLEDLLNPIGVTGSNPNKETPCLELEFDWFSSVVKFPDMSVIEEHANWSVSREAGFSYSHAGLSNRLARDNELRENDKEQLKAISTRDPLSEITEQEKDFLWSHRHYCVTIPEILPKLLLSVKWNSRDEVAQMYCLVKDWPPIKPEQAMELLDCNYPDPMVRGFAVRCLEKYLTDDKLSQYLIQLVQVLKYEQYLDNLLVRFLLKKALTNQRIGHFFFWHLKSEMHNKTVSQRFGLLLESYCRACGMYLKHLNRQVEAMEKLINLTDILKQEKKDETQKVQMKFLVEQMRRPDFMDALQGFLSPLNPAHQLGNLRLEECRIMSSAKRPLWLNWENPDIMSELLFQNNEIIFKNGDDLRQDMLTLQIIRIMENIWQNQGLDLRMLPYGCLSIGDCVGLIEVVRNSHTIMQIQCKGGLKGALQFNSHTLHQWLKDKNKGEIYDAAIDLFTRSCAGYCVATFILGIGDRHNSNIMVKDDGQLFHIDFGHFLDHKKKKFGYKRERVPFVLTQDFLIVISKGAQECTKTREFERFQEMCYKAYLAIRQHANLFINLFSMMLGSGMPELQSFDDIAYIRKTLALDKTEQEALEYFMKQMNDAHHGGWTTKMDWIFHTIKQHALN
T2 sequence (P27986 whole entry partner): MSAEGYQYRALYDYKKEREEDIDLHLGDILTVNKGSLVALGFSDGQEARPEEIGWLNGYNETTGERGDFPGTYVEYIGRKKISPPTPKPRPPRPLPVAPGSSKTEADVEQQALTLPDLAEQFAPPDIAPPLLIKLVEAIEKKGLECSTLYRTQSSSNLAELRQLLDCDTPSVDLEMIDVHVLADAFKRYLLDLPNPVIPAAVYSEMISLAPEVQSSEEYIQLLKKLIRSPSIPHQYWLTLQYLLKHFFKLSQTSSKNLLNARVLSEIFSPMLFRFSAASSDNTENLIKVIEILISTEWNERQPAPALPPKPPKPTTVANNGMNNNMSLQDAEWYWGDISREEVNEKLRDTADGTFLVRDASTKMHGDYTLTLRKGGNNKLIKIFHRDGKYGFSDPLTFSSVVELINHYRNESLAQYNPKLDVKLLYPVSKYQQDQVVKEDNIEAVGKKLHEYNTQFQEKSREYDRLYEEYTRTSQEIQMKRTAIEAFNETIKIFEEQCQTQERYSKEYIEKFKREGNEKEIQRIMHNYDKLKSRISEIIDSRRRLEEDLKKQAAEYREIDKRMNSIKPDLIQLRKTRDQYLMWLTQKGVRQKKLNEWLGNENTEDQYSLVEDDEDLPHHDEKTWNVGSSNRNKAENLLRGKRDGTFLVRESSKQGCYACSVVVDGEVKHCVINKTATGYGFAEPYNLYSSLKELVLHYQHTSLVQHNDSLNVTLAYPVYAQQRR
T1 sequence (O00329 whole entry): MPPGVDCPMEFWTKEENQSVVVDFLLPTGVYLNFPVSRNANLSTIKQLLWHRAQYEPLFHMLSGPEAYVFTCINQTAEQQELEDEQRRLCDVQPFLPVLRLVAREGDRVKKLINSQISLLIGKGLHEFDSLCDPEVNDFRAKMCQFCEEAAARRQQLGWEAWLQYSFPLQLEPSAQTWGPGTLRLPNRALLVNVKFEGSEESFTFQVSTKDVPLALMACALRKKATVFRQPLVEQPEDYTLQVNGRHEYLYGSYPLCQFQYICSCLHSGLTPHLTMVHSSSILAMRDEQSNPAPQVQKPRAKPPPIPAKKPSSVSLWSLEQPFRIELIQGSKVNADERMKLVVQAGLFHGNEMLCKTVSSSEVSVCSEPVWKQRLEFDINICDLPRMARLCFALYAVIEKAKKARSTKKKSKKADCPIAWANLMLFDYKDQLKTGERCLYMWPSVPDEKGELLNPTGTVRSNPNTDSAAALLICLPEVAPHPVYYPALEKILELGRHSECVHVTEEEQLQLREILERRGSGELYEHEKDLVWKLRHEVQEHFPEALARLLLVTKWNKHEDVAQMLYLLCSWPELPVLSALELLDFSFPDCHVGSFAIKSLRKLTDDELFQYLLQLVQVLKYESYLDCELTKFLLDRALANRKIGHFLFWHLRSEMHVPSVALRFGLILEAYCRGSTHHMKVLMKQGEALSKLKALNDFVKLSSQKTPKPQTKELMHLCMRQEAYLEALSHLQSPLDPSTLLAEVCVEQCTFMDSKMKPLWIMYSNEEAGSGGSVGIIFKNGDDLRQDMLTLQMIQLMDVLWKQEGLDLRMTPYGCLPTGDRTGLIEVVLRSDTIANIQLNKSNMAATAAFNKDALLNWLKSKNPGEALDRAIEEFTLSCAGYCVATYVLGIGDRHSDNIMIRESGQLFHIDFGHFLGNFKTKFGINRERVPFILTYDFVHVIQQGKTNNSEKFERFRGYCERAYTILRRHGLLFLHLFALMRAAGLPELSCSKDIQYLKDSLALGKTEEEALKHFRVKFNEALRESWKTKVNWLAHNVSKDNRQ
T1 sequence (P27986 whole entry partner): as the sequence (P27986 whole entry partner) above

IC50 (human PI3Kδ enzyme) [nM]	IC50 (Human PI3Kα) [nM]	SMILES	inhibitory activity (IL-2 production inhibition rate) (IL-2 production) [%]	IC50 [1] [nM]
5.2	> 10000	CC1(NCC(=O)N[C@H]2CC[C@H](Oc3cc(-n4c(C(F)F)nc5ccccc54)nc(N4CCOCC4)n3)CC2)CC1 [Example 137]	–	4.6
11	6700	CCOC(=O)N1CCN(c2ccc(CNc3nc(N4CCOCC4)cc(-n4c(C(F)F)nc5ccccc54)n3)cc2)CC1 [Example 158]	–	10
4.9	8200	FC(F)c1nc2ccccc2n1-c1cc(N2CCOCC2)nc(NCC2CCN(C3CCCCC3)CC2)n1 [Example 193]	–	4.1
4.1	> 10000	FC(F)c1nc2ccccc2n1-c1cc(N[C@H]2C[C@@H]3C[C@H](N4CCOCC4)C[C@@H]3C2)nc(N2CCOCC2)n1 [Example 195]	–	3
4.8	> 10000	CN(CC(=O)NC1CCC(Oc2cc(-n3c(C(F)F)nc4ccccc43)nc(N3CCOCC3)n2)CC1)C1CCC1 (stereo not drawn) [Example 196]	–	3.6
13	> 10000	NC1(C(=O)N[C@H]2CC[C@H](Oc3cc(-n4c(C(F)F)nc5ccccc54)nc(N4CCOCC4)n3)CC2)CCC1 [Example 215]	–	6.7
13	> 10000	NC1(C(=O)N[C@H]2CC[C@H](Oc3cc(-n4c(C(F)F)nc5ccccc54)nc(N4CCOCC4)n3)CC2)CCCC1 [Example 216]	–	5.7
3.3	7300	C[C@@H]1C[C@@H](N2CCC(CNc3nc(N4CCOCC4)cc(-n4c(C(F)F)nc5ccccc54)n3)CC2)C[C@H](C)O1 [Example 224]	–	1.5
34	720	COC(=O)N[C@H]1CCN([C@H]2CC[C@H](Nc3nc(N4CCOCC4)cc(-n4c(C(F)F)nc5ccccc54)n3)CC2)C1=O [Example 248, methyl{(3S)-1-[trans-4-({4-[2-(difluoromethyl)-1H-benzimidazol-1-yl]-6-(morpholin-4-yl)pyrimidin-2-yl}amino)cyclohexyl]-2-oxopyrrolidin-3-yl}carbamate]	–	1.4
11	> 10000	COC(=O)N[C@@H]1CCN([C@H]2CC[C@H](Oc3cc(-n4c(C(F)F)nc5ccccc54)nc(N4CCOCC4)n3)CC2)C1=O [Example 389]	–	4.4
24	> 10000	CCOC(=O)N[C@@H]1CCN([C@H]2CC[C@H](Oc3cc(-n4c(C(F)F)nc5ccccc54)nc(N4CCOCC4)n3)CC2)C1=O [Example 423]	–	3.1
48	1400	COC(=O)N[C@@H]1CCN([C@H]2CC[C@H](Nc3nc(N4CCOCC4)cc(-n4c(C(F)F)nc5ccccc54)n3)CC2)C1=O [Example 441]	–	1.8
31	730	CN1CCC(CNc2nc(N3CCOCC3)nc(-n3c(C(F)F)nc4ccccc43)n2)CC1 [Example A4]	58	–

The next lines start with the compound.

SMILES	IC50 (human PI3Kδ enzyme) [nM]	IC50 (Human PI3Kα) [nM]	inhibitory activity (IL-2 production inhibition rate) (IL-2 production) [%]	IC50 [1] [nM]
FC(F)c1nc2ccccc2n1-c1cc(N2CCOCC2)nc(NCC2CCN(C3CCOCC3)CC2)n1 [Example 10]	5.8	> 3000	77	2.9
OCC1CCC(N2CCC(CNc3nc(N4CCOCC4)cc(-n4c(C(F)F)nc5ccccc54)n3)CC2)CC1 (stereo not drawn) [Example 29]	45	> 3000	51	–
CC(=O)N1CCC(N2CCC(CNc3nc(N4CCOCC4)cc(-n4c(C(F)F)nc5ccccc54)n3)CC2)CC1 [Example 33]	11	> 3000	75	–
CS(=O)(=O)N1CCC(N2CCC(CNc3nc(N4CCOCC4)cc(-n4c(C(F)F)nc5ccccc54)n3)CC2)CC1 [Example 34]	14	> 3000	72	–
C[C@@H]1COCCN1c1cc(-n2c(C(F)F)nc3ccccc32)nc(NCC2CCN(C3CCOCC3)CC2)n1 [Example 37]	20	1900	81	1.52
FC(F)c1nc2ccccc2n1-c1cc(N2CCOCC2)nc(NCC2CCN([C@H]3CC[C@H](F)CC3)CC2)n1 [Example 43-1, 4-[2-(difluoromethyl)-1H-benzimidazol-1-yl]-N-{[1-(trans-4-fluorocyclohexyl)piperidin-4-yl]methyl}-6-(morpholin-4-yl)pyrimidin-2-amine dihydrochloride]	8	13000	73	2.1
CC(C)(O)CNC12CCC(CNc3nc(N4CCOCC4)cc(-n4c(C(F)F)nc5ccccc54)n3)(CC1)CC2 [Example 85, 1-({4-[({4-[2-(difluoromethyl)-1H-benzimidazol-1-yl]-6-(morpholin-4-yl)pyrimidin-2-yl}amino)methyl]bicyclo[2.2.2]oct-1-yl}amino)-2-methylpropan-2-ol]	21	5500	–	2.6
COC(=O)N[C@H]1CCN([C@H]2CC[C@H](Oc3cc(-n4c(C(F)F)nc5ccccc54)nc(N4CCOCC4)n3)CC2)C1=O [Example 87, methyl{(3S)-1-[trans-4-({6-[2-(difluoromethyl)-1H-benzimidazol-1-yl]-2-(morpholin-4-yl)pyrimidin-4-yl}oxy)cyclohexyl]-2-oxopyrrolidin-3-yl}carbamate]	4.9	> 10000	–	3.5
CC(=O)N[C@H]1CCN([C@H]2CC[C@H](Oc3cc(-n4c(C(F)F)nc5ccccc54)nc(N4CCOCC4)n3)CC2)C1=O [Example 99]	16	> 10000	–	2.5
CN(CC(C)(C)O)C12CCC(CNc3nc(N4CCOCC4)cc(-n4c(C(F)F)nc5ccccc54)n3)(CC1)CC2 [Example 121]	13	4900	–	2
Cc1ccc2nc(C(F)F)n(-c3cc(N4CCOCC4)nc(NC[C@H]4CC[C@H](N5CCOCC5)CC4)n3)c2c1 [Example 132]	12	> 10000	–	1.5
O=C(CNC1CCCC1)N[C@H]1CC[C@H](Oc2cc(-n3c(C(F)F)nc4ccccc43)nc(N3CCOCC3)n2)CC1 [Example 134]	4.7	6600	–	3.4
O=C(CNC1CCCCC1)N[C@H]1CC[C@H](Oc2cc(-n3c(C(F)F)nc4ccccc43)nc(N3CCOCC3)n2)CC1 [Example 135]	3	8000	–	2.5
O=C(CNC1CCOCC1)N[C@H]1CC[C@H](Oc2cc(-n3c(C(F)F)nc4ccccc43)nc(N3CCOCC3)n2)CC1 [Example 136]	4	> 10000	–	1.7
